Data taken from US11000601B2, “Conjugated biological molecules, pharmaceutical compositions and methods” (OBI Pharma, Inc., priority 2016, dated 2021).
Values joined by “and” are separate entries in the source; they are usually repeats but may differ in a detail not shown here. Equal values may be shown once. Square brackets hold non-standard residues; d marks the D form. Peptide text beside a SMILES is read from it. * marks the point of attachment. Dolaproine = CO[C@@H]([C@@H]1CCCN1)[C@@H](C)C(=O)O; Dil = CC[C@H](C)[C@H](NC)[C@@H](CC(=O)O)OC; X1 = C[C@@H](N*)[C@@H](O)c1ccccc1; NMeV = CN[C@H](C(=O)O)C(C)C

Tested on: MCF-7 (ATCC HTB-22) human breast adenocarcinoma
Experiment: Xenograft tumor model of human breast adenocarcinoma MCF-7 in nude mice: tumor volume, T/C
Type: in vivo
Details: for Tumor Volume, individual mouse: mice No. 1-6
Procedure: In a xenograft tumor model of human breast adenocarcinoma, MCF-7 (ATCC HTB-22) cells were subcutaneously (SC) implanted (2.0×10^7 cells in 1:1 matrigel/media mixture at 0.2 mL/mouse) into the right flank of female athymic (nu/nu) nude mice. Supplemental injections of estradiol cyclopentyl propionate (100 μg/mouse) were administered subcutaneously between the scapulae twice weekly, from one week prior to cell implantation to study completion. Tumor-implanted mice were divided into eleven treatment groups, each group containing six animals, and test agent administrations were initiated one day after cell implantation (denoted as Day 1). 3.1 Test Substances and Dosing Pattern
Two control groups received intravenous injections of vehicle (25 mM Sodium Citrate, pH 6.5+100 mM NaCl) once weekly for either six weeks (group 1) or two weeks (group 2).
Human breast adenocarcinoma tumor cell line, MCF-7 (ATCC HTB-22, breast adenocarcinoma), was provided by the Sponsor. The tumor cells were prepared and cultured by the Sponsor (1×10^8 cells/mL), and 0.2 mL MCF-7 tumor cell inoculum containing 2×10^7 cells (mixture of matrigel and medium; 1:1) was implanted subcutaneously in the right flank of each mouse.
Female (nu/nu) nude mice aged 6-7 weeks obtained from BioLasco Taiwan (under Charles River Laboratories Licensee) were used. The animals were housed in individually ventilated cages (IVG, 36 Mini Isolator System). The allocation for 3-5 animals was 27×20×14 in cm. All animals were maintained in a hygienic environment under controlled temperature (20-24° C.) and humidity (30-70%) with 12-hour light/dark cycle. Free access to standard lab diet (Oriental Yeast Co., Ltd., Japan) and autoclaved tap water were granted. All aspects of this work including housing, experimentation, and animal disposal were performed in general accordance with the “Guide for the Care and Use of Laboratory Animals: Eighth Edition” (National Academies Press, Washington, D.C., 2011) in our AAALAC-accredited laboratory animal facility. In addition, the animal care and use protocol was reviewed and approved by the IACUC at Eurofins Panlabs Taiwan, Ltd.
The tumor volumes, body weights, mortality, and signs of overt toxicity were monitored and recorded twice weekly for 77 days. Tumor volume (mm^3) was calculated according to the formula for a prolate ellipsoid: length (mm)×[width (mm)]^2×0.5. Tumor growth inhibition was calculated as T/C (treatment/control)×100%. A T/C value≤42% was considered significant anti-tumor activity. Two-way ANOVA followed by Bonferroni test was used to ascertain the statistical significance of groups compared to respective vehicle control (*p<0.05).

[1] = 0.057 mg/kg × 6, IV, once weekly, Day 1
[2] = 0.057 mg/kg × 6, IV, once weekly, Day 5
[3] = 0.057 mg/kg × 6, IV, once weekly, Day 8
[4] = 0.057 mg/kg × 6, IV, once weekly, Day 12
[5] = 0.057 mg/kg × 6, IV, once weekly, Day 15
[6] = 0.057 mg/kg × 6, IV, once weekly, Day 19
[7] = 0.057 mg/kg × 6, IV, once weekly, Day 22
[8] = 0.057 mg/kg × 6, IV, once weekly, Day 26
[9] = 0.057 mg/kg × 6 IV once weekly, Day 29
[10] = 0.057 mg/kg × 6 IV once weekly, Day 33
[11] = 0.057 mg/kg × 6 IV once weekly, Day 36
[12] = 0.057 mg/kg × 6 IV once weekly, Day 40
[13] = 0.057 mg/kg × 6 IV once weekly, Day 43
[14] = 0.057 mg/kg × 6 IV once weekly, Day 46

CC[C@H](C)[C@@H]([C@@H](CC(=O)N1CCC[C@H]1[C@H](OC)[C@@H](C)C(=O)N[C@H](C)[C@@H](O)c1ccccc1)OC)N(C)C(=O)[C@@H](NC(=O)[C@@H](NC)C(C)C)C(C)C [MMAE, monomethyl auristatin E] (H-[NMeV]V[Dil][Dolaproine]-X1)
anti-tumor activity (in words) (0.057 mg/kg IV once weekly for six weeks, during and for a short time after the dosing phase): modest-to-moderate anti-tumor activity
% T/C [1]: 101%
Tumor Volume, Mean [1]: 161 mm^3
Tumor Volume, single mouse (No. 1-6) [1]: 141 mm^3 and 139 mm^3 and 162 mm^3 and 186 mm^3 and 152 mm^3 and 188 mm^3
% T/C [2]: 97%
Tumor Volume, Mean [2]: 119 mm^3
Tumor Volume, single mouse (No. 1-6) [2]: 110 mm^3 and 123 mm^3 and 145 mm^3 and 104 mm^3 and 106 mm^3 and 128 mm^3
% T/C [3]: 96%
Tumor Volume, Mean [3]: 132 mm^3
Tumor Volume, single mouse (No. 1-6) [3]: 121 mm^3 and 125 mm^3 and 139 mm^3 and 131 mm^3 (2×) and 146 mm^3
% T/C [4]: 71%
Tumor Volume, Mean [4]: 114 mm^3
Tumor Volume, single mouse (No. 1-6) [4]: 101 mm^3 and 104 mm^3 and 133 mm^3 and 115 mm^3 and 103 mm^3 and 129 mm^3
% T/C [5]: 72%
Tumor Volume, Mean [5]: 116 mm^3
Tumor Volume, single mouse (No. 1-6) [5]: 102 mm^3 and 101 mm^3 and 127 mm^3 and 105 mm^3 and 137 mm^3 and 121 mm^3
% T/C [6]: 64%
Tumor Volume, Mean [6]: 130 mm^3
Tumor Volume, single mouse (No. 1-6) [6]: 137 mm^3 and 113 mm^3 and 125 mm^3 and 121 mm^3 and 148 mm^3 and 135 mm^3
% T/C [7]: 61%
Tumor Volume, Mean [7]: 140 mm^3
Tumor Volume, single mouse (No. 1-6) [7]: 123 mm^3 and 137 mm^3 (2×) and 138 mm^3 and 164 mm^3 and 143 mm^3
% T/C [8]: 54%
Tumor Volume, Mean [8]: 143 mm^3
Tumor Volume, single mouse (No. 1-6) [8]: 135 mm^3 and 127 mm^3 and 119 mm^3 and 154 mm^3 and 179 mm^3 and 144 mm^3
% T/C [9]: 54%
Tumor Volume, Mean (0.057 mg/kg × 6 IV once weekly, Day 29, group mean): 151 mm^3
Tumor Volume, individual mouse [9]: 146 mm^3 and 131 mm^3 and 119 mm^3 and 156 mm^3 and 194 mm^3 and 160 mm^3
% T/C [10]: 55%
Tumor Volume, Mean (0.057 mg/kg × 6 IV once weekly, Day 33, group mean): 168 mm^3
Tumor Volume, individual mouse [10]: 162 mm^3 and 152 mm^3 and 133 mm^3 and 168 mm^3 and 216 mm^3 and 177 mm^3
% T/C [11]: 59%
Tumor Volume, Mean (0.057 mg/kg × 6 IV once weekly, Day 36, group mean): 192 mm^3
Tumor Volume, individual mouse [11]: 171 mm^3 and 154 mm^3 and 152 mm^3 and 201 mm^3 and 256 mm^3 and 218 mm^3
% T/C [12]: 61%
Tumor Volume, Mean (0.057 mg/kg × 6 IV once weekly, Day 40, group mean): 210 mm^3
Tumor Volume, individual mouse [12]: 184 mm^3 and 186 mm^3 and 156 mm^3 and 223 mm^3 and 285 mm^3 and 226 mm^3
% T/C [13]: 63%
Tumor Volume, Mean (0.057 mg/kg × 6 IV once weekly, Day 43, group mean): 232 mm^3
Tumor Volume, individual mouse [13]: 186 mm^3 (2×) and 239 mm^3 and 242 mm^3 and 296 mm^3 and 240 mm^3
% T/C [14]: 65%
Tumor Volume, Mean (0.057 mg/kg × 6 IV once weekly, Day 46, group mean): 256 mm^3
Tumor Volume, individual mouse [14]: 204 mm^3 and 261 mm^3 and 222 mm^3 and 258 mm^3 and 332 mm^3 and 259 mm^3
% T/C (0.057 mg/kg × 6 IV once weekly, Day 49): 64%
Tumor Volume, Mean (0.057 mg/kg × 6 IV once weekly, Day 49, group mean): 272 mm^3
